The species entered for experiment [1] is Mus musculus. Kind of experiment: Inhibition of mouse neuroblast cell migration from subventricular zone tissue explants at 13.9 uM after 48 hrs relative to control. The class given is functional.
A short description of experiment [2]: Inhibition of mouse neuroblast cell migration from subventricular zone tissue explants at 139 uM after 48 hrs relative to control. Format: functional.
The species entered for experiment [3] is Mus musculus. Kind of experiment: Inhibition of mouse neuroblast cell migration from subventricular zone tissue explants at 67 uM after 48 hrs relative to control. Format: functional.
For experiment [4], the species on record is Mus musculus. Kind of experiment: (§1) Inhibition of mouse neuroblast cell migration from subventricular zone tissue explants at 63 uM after 48 hrs relative to control. The class given is functional.
Experiment [5] in a line: Inhibition of mouse neuroblast cell migration from subventricular zone tissue explants at 123 uM after 48 hrs relative to control. The class given is functional.
The species named for experiment [6] is Mus musculus. The experiment can be described thus: Inhibition of mouse neuroblast cell migration from subventricular zone tissue explants at 12.3 uM after 48 hrs relative to control. Format: functional.
Experiment [7] in a line: Inhibition of mouse neuroblast cell migration from subventricular zone tissue explants at 250 uM after 48 hrs relative to control.
Experiment [8] can be described thus: Inhibition of mouse neuroblast cell migration from subventricular zone tissue explants at 224 uM after 48 hrs relative to control. Format: functional.
For experiment [9], the species on record is Mus musculus. Kind of experiment: Inhibition of mouse neuroblast cell migration from subventricular zone tissue explants at 22 uM after 48 hrs relative to control. The class given is functional.
Experiment [10] in a line: Inhibition of mouse neuroblast cell migration from subventricular zone tissue explants at 154 uM after 48 hrs relative to control. Format: functional.
Experiment [11] is described as follows: Inhibition of mouse neuroblast cell migration from subventricular zone tissue explants at 223 uM after 48 hrs relative to control. Format: functional.
Experiment [12] in a line: as §1. Format: functional.
For experiment [13], the species on record is Mus musculus. The experiment can be described thus: Inhibition of mouse neuroblast cell migration from subventricular zone tissue explants at 100 uM after 48 hrs relative to control. The class given is functional.
The species named for experiment [14] is Mus musculus. Kind of experiment: Inhibition of mouse neuroblast cell migration from subventricular zone tissue explants at 6.8 uM after 48 hrs relative to control. The class given is functional.
Experiment [15] is described as follows: Inhibition of mouse neuroblast cell migration from subventricular zone tissue explants at 68 uM after 48 hrs relative to control. The class given is functional.
The nature of experiment [16]: Inhibition of mouse neuroblast cell migration from subventricular zone tissue explants at 34 uM after 48 hrs relative to control. Format: functional.
Experiment [17] is filed under the species Mus musculus. The experiment can be described thus: Reversal of inhibition of mouse neuroblast cell migration from subventricular zone tissue explants in presence of PR21. Format: functional.
For experiment [18], the species on record is Mus musculus. The experiment can be described thus: Inhibition of PR21-stimulated mouse neuroblast cell migration from subventricular zone tissue explants after 24 hrs. Format: functional.
The species named for experiment [19] is Mus musculus. The experiment can be described thus: Inhibition of mouse neuroblast cell migration from subventricular zone tissue explants after 24 hrs. The class given is functional.

The source made the active and inactive calls. The calls are words filed in the database; no cut-off is given here.

On to `O=C(NCCSSCCNC(=O)c1ccccc1)c1ccccc1`, for which the result in experiment [1] was inactive. The compound further came in with an inhibition at 139 µM in experiment [2] of 100%. In the case of `O=C(c1ccc(C(=O)N2CCCNCCNCCCNCC2)cc1)N1CCCNCCNCCCNCC1`, the outcome in experiment [3] was inactive. As to `C1CNCCNCCCN(CC2CCC(CN3CCCNCCNCCCNCC3)CC2)CCNC1` (configuration not stated), the outcome in [4] was inactive. Consider `c1ccc(CNCCSSCCNCc2ccccc2)cc1`, for which the inhibition at 123 µM in experiment [5] was 100%. Moreover, in experiment [6], the result was inactive. Take `C1CNCCNCCCNCCNC1`: the inhibition at 250 µM in experiment [7] amounted to 20%. Take `c1cc(CN2CCCNCCNCCCNCC2)ccc1CN1CCCNCCNCCCNCC1`: in experiment [4], the outcome was inactive. Take `C1CNCCNCCCN(CCCCN2CCCNCCNCCCNCC2)CCNC1`: in [3], the outcome was inactive. In experiment [8], `C1CNCCNCCNCCN1` gave an inhibition at 224 µM of 19%. For the same compound, the outcome in experiment [9] was inactive. With `c1ccc(CN2CCCNCCNCCCNCC2)c(CN2CCCNCCNCCCNCC2)c1`, the outcome in experiment [4] was inactive. With `O=C(NCCCCCCNC(=O)c1ccccc1)c1ccccc1`, the inhibition at 154 µM in experiment [10] amounted to 50%.

`NCCSSCCN` [CYSTAMINE]: the inhibition at 223 µM in experiment [11] amounted to 33%. Turning to `c1cc(CN2CCCNCCNCCCNCC2)cc(CN2CCCNCCNCCCNCC2)c1`, testing at 63 µM in experiment [12] gave an inhibition of 10%. With `CC(CNCCCCCN)SSC(C)CNCCCCCN` (configuration not stated), the outcome in experiment [13] was inactive. Turning to `COc1ccccc1CNCCCCCCNCCSSCCNCCCCCCNCc1ccccc1OC` [BENEXTRAMINE], the result in experiment [14] was inactive. For the same compound, testing at 68 µM in [15] gave an inhibition of 100%. The same compound displayed an inhibition at 34 µM in [16] of 45%. Moreover, the result in [17], in experiment [18] and in experiment [19] was Active.

The values are drawn from ChEMBL document CHEMBL1142280, “Discovery of new small molecules that influence neuroblast cell migration from the subventricular zone” (2008).
